Assay results reported in patent US9879050B2, “Substituted urea depsipeptide analogs as activators of the CLPP endopeptidase” (priority 2013, dated 2018).
Values after ≈ are worked out from the molar mass of the structure shown. Like-named read-outs stand apart in the source and are kept apart here. *1 amine or outer side, *2 acyl side, *3 side chain or, on linkers, in order; H or OH if unused. Where a SMILES comes first, the peptide text is derived from it. Bridges are numbered along the chain shown (N, C = ends). [ ]: non-standard residue; d: D form. The star is where a group is joined. Phe(3,5-F2) = N[C@@H](Cc1cc(F)cc(F)c1)C(=O)O; Pro(4S-Me) = C[C@@H]1CN[C@H](C(=O)O)C1; NH(4-Et-phenyl) = CCc1ccc(N*)cc1; aThr = C[C@H](O)[C@H](N)C(=O)O; Pip = O=C(O)[C@@H]1CCCCN1; CO = O=C([*:1])[*:2]

Experiments:
S. aureus ClpP (Sa-ClpP) = target: T1, S. aureus ClpP (Sa-ClpP) (Staphylococcus aureus, UniProt Q2G036); experiment: ClpP activation, casein-BODIPY digestion assay (first described method); assay type: biochemical; conditions: first described ClpP activation assay (**); 10 μM saClpP, 25 μg/ml BODIPY FL casein, 37° C.; read-out: ClpP Activation EC50
T1 construct: made in house; host or cells: E. coli BL21 (DE3)
Experimental: The compounds were assayed in a casein digestion assay in order to determine their effect on ClpP activation. Briefly, the assay was carried out using S. aureus ClpP (“Sa-ClpP”) overexpressed in E. coli BL21 (DE3) and purified in a two-step process. Purity of the protein was assessed through SDS PAGE analysis. EC50 evaluations were conducted in triplicate in a 20 μl assay format using a method adapted from Maurizi et al. (Methods Enzymol. (1994) 244:314-331.). Each well contained 10 μM saClpP, 25 μg/ml BODIPY FL casein (Invitrogen Corporation, San Diego, Calif.), and test compound in concentrations ranging between 0-100 μM in assay buffer (50 mM Tris pH 8, 200 mM KCl, and 1 mM TCEP). The reaction took place at 37° C. Fluorescence (excitation 485 nm; emission 528 nm) was measured in five minute intervals over a 45 min period using a BioTek HT fluorescence microplate reader (BioTek Instruments, Inc., Winooski, Vt.). Velocity of each reaction was calculated and data was fit to a dose response curve using GraphPad Prism® software (GraphPad Software, Inc., La Jolla, Calif.). EC50 is the effective concentration of compound which causes 50% activation of S. aureus ClpP in the foregoing BODIPY FL casein assay.

[1] = Cytotoxicity assay, CellTiter-Glo cell viability; assay type: cell-based; conditions: African green monkey
How it was run: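 Vero cells seeded overnight at 37 °C in DMEM with 10% FBS, then exposed to serial dilutions of compound for 72 h. Viability read by CellTiter-Glo luminescence; IC50 from duplicates, given as the range of two independent experiments.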

Sa-ClpP [2] = target: T2, Sa-ClpP (Staphylococcus aureus, UniProt Q2G036); experiment: ADEP displacement fluorescence polarization assay; assay type: binding, S. aureus; conditions: 1 μM Sa-ClpP, 50 nM FP probe ADEP 2591; read-out: ADEP Displacement IC50
T2 construct: made in house; host or cells: E. coli BL21 (DE3)
How it was run: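 Displacement of TAMRA-labelled ADEP 2591 probe (50 nM) from 1 μM Sa-ClpP, pre-equilibrated 1 h in Tris·HCl pH 8.0 with 2% DMSO, then 120 min at room temperature with compound, triplicate. Polarization (mP) read ex 530/em 579 nm, normalised to 20 μM ADEP 2378 and DMSO controls; four-parameter fit.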

Sa-ClpP [3] = target: T2, Sa-ClpP; experiment: ClpP activation, EnzCheck Protease Assay with Bodipy-FL casein (second described method); assay type: biochemical, S. aureus; conditions: read-out: ClpP Activation EC50 (converted)
How it was run: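 Sa-ClpP (2 μM in master mix) with Bodipy-FL casein (2 μM in master mix) in Tris-HCl pH 8.0, 0.01% Triton X-100, compounds in 2% DMSO, triplicate. Fluorescence (ex 485/em 520 nm) followed 30 min; degradation slopes normalized to ADEP4 and DMSO controls, EC50 and % activation by four-parameter fit.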

E. coli K12ΔtolC = experiment: Minimal inhibitory concentration, microbroth dilution; assay type: cell-based
How it was run: (§1)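 Following CLSI M7-A7 microbroth dilution, twofold serial dilutions of compound (top final concentration 200 μM) were combined with an equal volume of broth inoculum at about 10^5 cfu/mL. Plates were incubated aerobically at 37 °C overnight, and the MIC was the lowest concentration preventing visible growth.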

S. pneumoniae DAW27 = experiment: as above; assay type: cell-based
How it was run: as §1

B. subtilis ATCC 23857 = experiment: as above; assay type: cell-based; conditions: Bacillus subtilis, ATCC23857, read-out: Minimal Inhibitory Concentration B. subtilis ATCC 23857
How it was run: as §1

E. faecails ATCC 33186 = experiment: as above; assay type: cell-based; conditions: Enterococcus faecalis, ATCC33186, read-out: Minimal Inhibitory Concentration E. faecails ATCC 33186
How it was run: as §1

S. aureus ATCC 29213 = experiment: as above; assay type: cell-based; conditions: Staphylococcus aureus, ATCC29213, read-out: Minimal Inhibitory Concentration S. aureus ATCC 29213
How it was run: as §1

S. pyogenes ATCC 700294 = experiment: as above; assay type: cell-based; conditions: Streptococcus pyogenes, ATCC700294, read-out: Minimal Inhibitory Concentration S. pyogenes ATCC 700294
How it was run: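 Twofold serial dilutions in broth per CLSI M7-A7 microbroth dilution, incubated aerobically overnight at 37° C. MIC read visually as lowest concentration preventing bacterial growth.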

[4] = Streptococcus pneumoniae, DAW27; read-out: Minimal Inhibitory Concentration S. pneumoniae DAW27

T2 sequence (Q2G036 whole entry): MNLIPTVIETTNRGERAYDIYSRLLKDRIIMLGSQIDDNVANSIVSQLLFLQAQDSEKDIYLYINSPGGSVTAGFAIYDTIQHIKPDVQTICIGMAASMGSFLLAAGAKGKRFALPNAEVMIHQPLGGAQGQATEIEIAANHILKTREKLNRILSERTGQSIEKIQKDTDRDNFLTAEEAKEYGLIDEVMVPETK
T1 sequence (Q2G036 whole entry): as above

Structure (SMILES)	EC50 (S. aureus ClpP (Sa-ClpP))	IC50 (Sa-ClpP [2])	EC50 (Sa-ClpP [3])	Minimal Inhibitory Concentration E. coli K12ΔtolC (E. coli K12ΔtolC)	MIC (S. pneumoniae DAW27; [4])	other results
CCc1ccc(NC(=O)N[C@@H](Cc2cc(F)cc(F)c2)C(=O)N[C@@H]2C(=O)N3CCC[C@H]3C(=O)N3CCCC[C@H]3C(=O)N[C@@H](C)C(=O)N3C[C@@H](C)C[C@H]3C(=O)O[C@H]2C)cc1 [Compound 21, (S)-3-(3,5-Difluorophenyl)-2-(3-(4-Ethylphenyl)Ureido)-N-((2R,6S,8aS,14aS,20S,21S,23aS)-2,6,21-Trimethyl-5,8,14,19,23-Pentaoxooctadecahydro-1H,5H,14H,19H-Pyrido[2,1-I]Dipyrrolo[2,1-C:2′,1′-L][1]Oxa[4,7,10,13]Tetraazacyclohexadecin-20-Yl)Propanamide] ({NH(4-Et-phenyl)-CO}-[Phe(3,5-F2)][aThr]P[Pip]A[Pro(4S-Me)]; ester 2-C)	1.1 ± 0.3 µM	7.3 ± 0.3 µM	0.33 µM			IC50 at 72 h ([1]; Vero kidney epithelial cells (ATCC CCL-81), Vero cells, 72 hours, read-out: Cytotoxicity IC50): 68.5 ± 6.6 µM
NC[C@H]1O[C@H](O[C@H]2[C@H](O)[C@@H](O[C@H]3O[C@H](CO)[C@@H](O)[C@H](N)[C@H]3O)[C@H](N)C[C@@H]2N)[C@H](O)[C@@H](O)[C@@H]1O [Kanamycin, kanamycin, reference compound]				0.4 µM	25 µM (≈ 12.1 µg/mL)	
CN(C)[C@@H]1C(O)=C(C(N)=O)C(=O)[C@@]2(O)C(O)=C3C(=O)c4c(O)cccc4[C@@](C)(O)[C@H]3C[C@@H]12 [Tetracycline, tetracycline, reference compound]				12.5 µM	0.1 µM (≈ 0.0444 µg/mL)	
C[C@@H]1C[C@H]2C(=O)OC[C@H](NC(=O)[C@H](Cc3ccccc3)NC(=O)Nc3ccccc3)C(=O)N3CCC[C@H]3C(=O)N3CCCC[C@H]3C(=O)N[C@@H](C)C(=O)N2C1 [Compound 1, (S)—N-((2R,6S,8aS,14aS,20S,23aS)-2,6-Dimethyl-5,8,14,19,23-Pentaoxooctadecahydro-1H,5H,14H,19H-Pyrido[2,1-I]Dipyrrolo[2,1-C:2′,1′-L][1]Oxa[4,7,10,13]Tetraazacyclohexadecin-20-Yl)-3-Phenyl-2-(3-Phenylureido)Propanamide]	3.6 ± 0.4 µM	6.72 ± 0.4 µM		200 µM		MIC (B. subtilis ATCC 23857): 1.56 µM (≈ 1.16 µg/mL); MIC (S. pneumoniae DAW27; Streptococcus pneumoniae, DAW27, read-out: Minimal Inhibitory Concentration S. pneumoniae DAW27): 0.78 µM (≈ 0.58 µg/mL); MIC (E. faecails ATCC 33186): 3.13 µM (≈ 2.33 µg/mL); MIC (S. aureus ATCC 29213): 6.25 µM (≈ 4.65 µg/mL); IC50 at 72 h ([1]; Vero cells, 72 hours, read-out: Cytotoxicity IC50): > 100 µM; MIC (S. pyogenes ATCC 700294): 1.56 µM (≈ 1.16 µg/mL)
CCc1ccc(NC(=O)N[C@@H](Cc2ccccc2)C(=O)N[C@H]2COC(=O)[C@@H]3C[C@@H](C)CN3C(=O)[C@H](C)NC(=O)[C@@H]3CCCCN3C(=O)[C@@H]3CCCN3C2=O)cc1 [Compound 4, (S)—N-((2R,6S,8aS,14aS,20S,23aS)-2,6-Dimethyl-5,8,14,19,23-Pentaoxooctadecahydro-1H,5H,14H,19H-Pyrido[2,1-1]Dipyrrolo[2,1-C:2′,1′-L][1]Oxa[4,7,10,13]Tetraazacyclohexadecin-20-Yl)-2-(3-(4-Ethylphenyl)Ureido)-3-Phenylpropanamide]	1.4 ± 0.1 µM	29 ± 2.1 µM	5.5 µM	25 µM		IC50 at 72 h [1]: 73.7 ± 8.4 µM
